Data on two compounds can be found in ChEMBL document CHEMBL3045627, “Effect of allylisothiocyanate on Sitophilus oryzae, Tribolium confusum and Plodia interpunctella: Toxicity and effect on insect mitochondria” (2012).

For experiment [1], the system named is Sitophilus oryzae. The experiment in a line: Insecticidal activity against adult Sitophilus oryzae (rice weevil) in wheat grain assessed as mortality at 85% EC dry formulation applied as fumes for 72 hr measured after 7 days by fumigation bioassay. It is filed as functional.
For experiment [2], the system named is Tribolium confusum. The experiment in a line: Insecticidal activity against third-instar larval stage of Tribolium confusum (confused flour beetle) assessed as morphological changes in anterior, posterior and middle regions of midgut with attatched malphigian tubules applied as vapours measured after 24 hr by light microscopy. It is filed as functional, organism-based.

The subject of experiment [3] is Sitophilus oryzae. The experiment in a line: Insecticidal activity against adult Sitophilus oryzae (rice weevil) in wheat grain assessed as mortality at 9.4 microl/L air at 85% EC formulation applied as fumes for 72 hr measured after 7 days by fumigation bioassay. It is filed as functional.
Experiment [4] deals with Tribolium confusum. The experiment in a line: Insecticidal activity against larvae of Tribolium confusum (confused flour beetle) in broken wheat assessed as mortality at 11.3 microl/L air at 85% EC formulation applied as fumes for 72 hr measured after 14 days by fumigation bioassay. Format: functional.
For experiment [5], the system named is Tribolium confusum. The experiment in a line: Insecticidal activity against adult Tribolium confusum (confused flour beetle) in broken wheat assessed as mortality at 85% EC dry formulation applied as fumes for 24 hr measured after 14 days by fumigation bioassay. Format: functional.
Experiment [6] deals with Tribolium confusum. The experiment in a line: Insecticidal activity against adult Tribolium confusum (confused flour beetle) in broken wheat assessed as mortality at 9.4 microl/L air at 85% EC formulation applied as fumes for 72 hr measured after 14 days by fumigation bioassay. It is filed as functional.
Experiment [7] relates to Tribolium confusum. The experiment in a line: Insecticidal activity against third-instar larval stage of Tribolium confusum (confused flour beetle) assessed as vacuolization of mitochondrial matrix, nucleus with well distributed chromatin, enlarged mitochondria with few cristae, reduced electron density, matrix rarefaction in the epithelial cells of epidermal layer in the integument at LC50 applied as fumes measured after 24 hr by electron microscopic analysis. The conditions noted are these: Epithelial cell. Format: functional, organism-based.

Experiment [8] deals with Tribolium confusum. The experiment in a line: Insecticidal activity against larvae of Tribolium confusum (confused flour beetle) in broken wheat assessed as mortality at 85% EC wettable formulation applied as fumes for 72 hr measured after 14 days by fumigation bioassay. Format: functional.
The test system of experiment [9] is Sitophilus oryzae. The experiment in a line: Insecticidal activity against adult Sitophilus oryzae (rice weevil) in wheat grain assessed as mortality at 85% EC wettable formulation fumigated for 72 hr applied as fumes after 7 days by fumigation bioassay. Format: functional.
The subject of experiment [10] is Tribolium confusum. The experiment in a line: Insecticidal activity against adult Tribolium confusum (confused flour beetle) in broken wheat assessed as mortality at 4.3 microl/L air at 85% EC formulation applied as fumes for 72 hr measured after 14 days by fumigation bioassay. It is filed as functional.
The subject of experiment [11] is Tribolium confusum. The experiment in a line: Insecticidal activity against larvae of Tribolium confusum (confused flour beetle) in broken wheat assessed as mortality at 4.3 microl/L air at 85% EC formulation applied as fumes for 72 hr measured after 14 days by fumigation bioassay. It is filed as functional.
The subject of experiment [12] is Sitophilus oryzae. The experiment in a line: Insecticidal activity against adult Sitophilus oryzae (rice weevil) in wheat grain assessed as mortality at 85% EC dry formulation applied as fumes for 24 hr measured after 7 days by fumigation bioassay. It is filed as functional.
Experiment [13] concerns Tribolium confusum. The experiment in a line: Insecticidal activity against adult Tribolium confusum (confused flour beetle) in broken wheat assessed as mortality at 85% EC wettable formulation applied as fumes for 72 hr measured after 14 days by fumigation bioassay. Format: functional.
The test system of experiment [14] is Tribolium confusum. The experiment in a line: Insecticidal activity against third-instar larval stage of Tribolium confusum (confused flour beetle) assessed as enlarged mitochondria with reduced quantity of cristae, lower electron dense matrix, vacuolization and rarefaction of mitochondrial matrix in the epithelial cells of epidermal layer in the integument at LC20 applied as fumes measured after 24 hr by electron microscopic analysis. It is filed as functional, organism-based. The conditions noted are these: Epithelial cell.

Experiment [15] concerns Plodia interpunctella. The experiment in a line: Insecticidal activity against larvae of Plodia interpunctella (Indian meal moth ) in wheat grain assessed as mortality at 85% EC wettable formulation applied as fumes for 24 hr measured after 7 days by fumigation bioassay. Format: functional.
Experiment [16] deals with Sitophilus oryzae. The experiment in a line: Insecticidal activity against adult Sitophilus oryzae (rice weevil) in wheat grain assessed as mortality at 4.3 microl/L air at 85% EC formulation applied as fumes for 72 hr measured after 7 days by fumigation bioassay. Format: functional.
The subject of experiment [17] is Tribolium confusum. The experiment in a line: Insecticidal activity against adult Tribolium confusum (confused flour beetle) in broken wheat assessed as mortality at 85% EC dry formulation applied as fumes for 72 hr measured after 14 days by fumigation bioassay. It is filed as functional.
For experiment [18], the system named is Tribolium confusum. The experiment in a line: Insecticidal activity against third-instar larval stage of Tribolium confusum (confused flour beetle) assessed as numerous mitochondria with few cristae, reduced electron density, matrix rarefaction and vacuolization of the mitochondrial matrix in regenerative nidi cells of the midgut at LC20 applied as fumes measured after 24 hr by electron microscopic analysis. Format: functional, organism-based.

Experiment [19] deals with Tribolium confusum. The experiment in a line: Insecticidal activity against larvae of Tribolium confusum (confused flour beetle) in broken wheat assessed as mortality at 85% EC dry formulation applied as fumes for 24 hr measured after 14 days by fumigation bioassay. It is filed as functional.
Experiment [20] concerns Plodia interpunctella. The experiment in a line: Insecticidal activity against larvae of Plodia interpunctella (Indian meal moth ) in wheat grain assessed as mortality at 85% EC wettable formulation applied as fumes for 72 hr measured after 7 days by fumigation bioassay. It is filed as functional.
Experiment [21] relates to Sitophilus oryzae. The experiment in a line: Insecticidal activity against adult Sitophilus oryzae (rice weevil) in wheat grain assessed as mortality at 11.3 microl/L air at 85% EC formulation applied as fumes for 72 hr measured after 7 days by fumigation bioassay. Format: functional.
Experiment [22] deals with Sitophilus oryzae. The experiment in a line: Insecticidal activity against adult Sitophilus oryzae (rice weevil) in wheat grain assessed as mortality at 85% EC wettable formulation applied as fumes for 24 hr measured after 7 days by fumigation bioassay. Format: functional.
The subject of experiment [23] is Tribolium confusum. The experiment in a line: Insecticidal activity against adult Tribolium confusum (confused flour beetle) in broken wheat assessed as mortality at 11.3 microl/L air at 85% EC formulation applied as fumes for 72 hr measured after 14 days by fumigation bioassay. It is filed as functional.
The subject of experiment [24] is Plodia interpunctella. The experiment in a line: Insecticidal activity against larvae of Plodia interpunctella (Indian meal moth ) in wheat grain assessed as mortality at 85% EC dry formulation applied as fumes for 72 hr measured after 7 days by fumigation bioassay. Format: functional.
In experiment [25] the test system is Tribolium confusum. The experiment in a line: Insecticidal activity against third-instar larval stage of Tribolium confusum (confused flour beetle) assessed as numerous mitochondria with few cristae, reduced electron density, matrix rarefaction and vacuolization of the mitochondrial matrix in columnar cells of the midgut at LC20 applied as fumes measured after 24 hr by electron microscopic analysis. Format: functional, organism-based.

Experiment [26] has as its system Tribolium confusum. The experiment in a line: Insecticidal activity against adult Tribolium confusum (confused flour beetle) in broken wheat assessed as mortality at 85% EC wettable formulation applied as fumes for 24 hr measured after 14 days by fumigation bioassay. It is filed as functional.
The test system of experiment [27] is Tribolium confusum. The experiment in a line: Insecticidal activity against larvae of Tribolium confusum (confused flour beetle) in broken wheat assessed as mortality at 9.4 microl/L air at 85% EC formulation applied as fumes for 72 hr measured after 14 days by fumigation bioassay. Format: functional.
Experiment [28] has as its system Tribolium confusum. The experiment in a line: Insecticidal activity against larvae of Tribolium confusum (confused flour beetle) in broken wheat assessed as mortality at 85% EC wettable formulation applied as fumes for 24 hr measured after 14 days by fumigation bioassay. It is filed as functional.
Experiment [29] relates to Plodia interpunctella. The experiment in a line: Insecticidal activity against larvae of Plodia interpunctella (Indian meal moth ) in wheat grain assessed as mortality at 85% EC dry formulation applied as fumes for 24 hr measured after 7 days by fumigation bioassay. Format: functional.
Experiment [30] deals with Tribolium confusum. The experiment in a line: Insecticidal activity against third-instar larval stage of Tribolium confusum (confused flour beetle) assessed as change in the integument colour to dark in the middle area with slight effect toward both ends applied as vapour measured after 24 hr by light microscopic analysis. It is filed as functional, organism-based.
The subject of experiment [31] is Tribolium confusum. The experiment in a line: Insecticidal activity against larvae of Tribolium confusum (confused flour beetle) in broken wheat assessed as mortality at 85% EC dry formulation applied as fumes for 72 hr measured after 14 days by fumigation bioassay. Format: functional.
Experiment [32] concerns Sitophilus oryzae. The experiment in a line: whole plant or invertebrate. The note with it: in Triticum aestivum.
In experiment [33] the test system is Tribolium confusum. The experiment in a line: Insecticidal activity against adult Tribolium confusum (confused flour beetle) in broken wheat assessed as mortality at 5 mg/l applied as fumes for 72 hr measured after 14 days by fumigation bioassay. The note with it: in Triticum aestivum.
Experiment [34] deals with Tribolium confusum. The experiment in a line: Insecticidal activity against larvae of Tribolium confusum (confused flour beetle) in broken wheat assessed as mortality at 5 mg/l applied as fumes for 72 hr measured after 14 days by fumigation bioassay. The note with it: in Triticum aestivum.

Activity calls are given as the source filed them. The rule behind the calls is not given here.

Consider `C=CCN=C=S` [ALLYL ISOTHIOCYANATE], for which the LC50 with Sitophilus oryzae [1] came to 2 uL/L; in the experiment with Tribolium confusum [5], 4.7 uL/L; in the experiment with Tribolium confusum [8] it was 5.5 uL/L; in the experiment with Sitophilus oryzae [9], 2.2 uL/L; in the experiment with Sitophilus oryzae [12], 2.6 uL/L; in the experiment with Tribolium confusum [13], 4.2 uL/L. Moreover, the LC50 in the experiment on Plodia interpunctella [15] was 3.7 uL/L; in the experiment on Tribolium confusum [17], 3.7 uL/L; in the experiment with Tribolium confusum [19], 7.3 uL/L; in the experiment on Plodia interpunctella [20], 2.3 uL/L; in the experiment on Sitophilus oryzae [22], 2.7 uL/L; with Plodia interpunctella [24] it was 2.2 uL/L. Further, the LC50 in the experiment on Tribolium confusum [26] is given as 5.5 uL/L; with Tribolium confusum [28], 7.1 uL/L; with Plodia interpunctella [29] it was 3.5 uL/L; in the experiment on Tribolium confusum [31] it was 4.7 uL/L. Moreover, the LC95 is 3.4 uL/L in the experiment with Sitophilus oryzae [1]; 9.3 uL/L in the experiment on Tribolium confusum [5]; 9.9 uL/L with Tribolium confusum [8]; 3.7 uL/L with Sitophilus oryzae [9]; 4.7 uL/L in the experiment with Sitophilus oryzae [12]; 7.8 uL/L in the experiment with Tribolium confusum [13]. Besides, the LC95 in the experiment on Plodia interpunctella [15] stood at 8.7 uL/L; in the experiment on Tribolium confusum [17], 6.6 uL/L; in the experiment with Plodia interpunctella [20], 5 uL/L; in the experiment on Sitophilus oryzae [22], 4.2 uL/L; in the experiment with Plodia interpunctella [24], 4.1 uL/L; with Tribolium confusum [26], 12.8 uL/L. Besides, the LC95 in the experiment on Plodia interpunctella [29] turned out to be 7.7 uL/L; in the experiment with Tribolium confusum [31], 9.5 uL/L. The result in the experiment with Tribolium confusum [2], with Tribolium confusum [7], in the experiment with Tribolium confusum [14], in the experiment on Tribolium confusum [18], with Tribolium confusum [25] and in the experiment with Tribolium confusum [30] was Active. Besides, the mortality amounted to 100% with Sitophilus oryzae [3]; 100% in the experiment on Tribolium confusum [4]; 100% in the experiment on Tribolium confusum [6]; 70% in the experiment on Tribolium confusum [10]; 48% in the experiment with Tribolium confusum [11]; 100% in the experiment with Sitophilus oryzae [16]. In addition, the figures for the mortality with Sitophilus oryzae [21], in the experiment with Tribolium confusum [23] and with Tribolium confusum [27] were 100%, 100% and 93%, respectively.
Regarding `P` [PHOSPHINE], the mortality at 5 µg/mL in the experiment on Sitophilus oryzae [32], in the experiment with Tribolium confusum [33] and in the experiment with Tribolium confusum [34] was 100% each time.

In general, mortality refers to the percentage killed.
